Consider two compounds from PMC3274540 (PLoS ONE, 2012).

pIC50: −log10 of the molar value.

One test addresses T1, ERβ (Homo sapiens, UniProt Q92731).
T1 construct: gene ESR2; recombinant
Kind of test: fluorescence polarization competition binding assay.

The target in another test is T2, ERα (Homo sapiens, UniProt P03372).
T2 construct: gene ESR1; recombinant
T2 sequence (P03372 1-595): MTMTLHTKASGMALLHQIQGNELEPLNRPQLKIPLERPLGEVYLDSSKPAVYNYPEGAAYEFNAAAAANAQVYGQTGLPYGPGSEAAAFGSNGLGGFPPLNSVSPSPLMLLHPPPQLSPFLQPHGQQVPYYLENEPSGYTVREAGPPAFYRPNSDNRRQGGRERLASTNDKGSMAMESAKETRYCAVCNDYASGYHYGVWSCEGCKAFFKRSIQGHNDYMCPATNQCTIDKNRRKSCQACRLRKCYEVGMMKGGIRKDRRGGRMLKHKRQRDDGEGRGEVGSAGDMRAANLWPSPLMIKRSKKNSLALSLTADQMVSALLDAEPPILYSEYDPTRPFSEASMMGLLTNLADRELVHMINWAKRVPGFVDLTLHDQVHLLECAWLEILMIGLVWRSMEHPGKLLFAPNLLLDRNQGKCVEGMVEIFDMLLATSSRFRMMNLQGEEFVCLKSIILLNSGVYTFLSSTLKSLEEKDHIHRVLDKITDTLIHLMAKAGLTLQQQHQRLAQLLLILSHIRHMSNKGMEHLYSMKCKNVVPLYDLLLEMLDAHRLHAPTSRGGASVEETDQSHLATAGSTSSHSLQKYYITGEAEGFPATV
The test is described as above.

T1 sequence (Q92731 whole entry): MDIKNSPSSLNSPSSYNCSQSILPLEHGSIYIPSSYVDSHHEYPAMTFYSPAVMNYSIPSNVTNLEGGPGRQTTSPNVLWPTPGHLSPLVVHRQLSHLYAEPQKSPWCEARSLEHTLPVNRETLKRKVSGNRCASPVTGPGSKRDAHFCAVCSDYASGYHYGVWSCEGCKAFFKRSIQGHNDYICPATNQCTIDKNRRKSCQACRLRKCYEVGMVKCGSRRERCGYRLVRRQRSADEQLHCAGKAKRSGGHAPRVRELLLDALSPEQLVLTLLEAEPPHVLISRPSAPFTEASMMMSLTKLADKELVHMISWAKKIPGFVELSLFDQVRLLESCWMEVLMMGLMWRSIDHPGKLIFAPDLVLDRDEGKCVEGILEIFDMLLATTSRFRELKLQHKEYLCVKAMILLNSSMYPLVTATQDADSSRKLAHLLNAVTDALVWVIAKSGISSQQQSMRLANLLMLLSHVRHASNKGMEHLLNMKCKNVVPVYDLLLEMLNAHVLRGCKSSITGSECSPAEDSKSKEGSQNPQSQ

Broadly, the pIC50 is the IC50 on a negative log10 scale, so that one unit is a factor of ten. High values mean a low IC50, low ones a high IC50. Take `COc1ccc([C@@H](C)C(=O)c2ccc(O)cc2O)cc1` [angolensin, 1-(2,4-dihydroxyphenyl)-2-(4-methoxyphenyl)propan-1-one]: the values for the pIC50 on ERβ and at ERα were 5.33 and 5.66, respectively.

With `O=c1cc(-c2ccc(O)cc2)oc2cc(O[C@@H]3O[C@H](CO)[C@@H](O)[C@H](O)[C@H]3O)cc(O)c12` [cosmosiin, 5-hydroxy-2-(4-hydroxyphenyl)-7-[(2S,3R,4S,5S,6R)-3,4,5-trihydroxy-6-(hydroxymethyl)oxan-2-yl]oxychromen-4-one], the figures for the pIC50 at ERβ and at ERα were 5.48 and 4.80, respectively.
